Results as given in patent publication US20230203156A1, “ANTI-MDR1 ANTIBODIES AND USES THEREOF” (KENJOCKETY BIOTECHNOLOGY, INC., priority 2020, published 2023).
Where two headings read alike, the source gives them in different places.

How the values were obtained:
human MDR1 = molecular target: T1, human MDR1 (Homo sapiens, UniProt P08183); assay: Efflux blockade of MDR1 fluorescent substrates (flow cytometry); assay type: cell-based
T1 construct: expressed in transfected cells
Procedure: HEK 293T cells expressing human MDR1 or MES-SA/DX5 cells expressing human MDR1 were washed several times and aliquoted into 96-well plates as 50 µl aliquots/well at a cell density of 1 x 10e6 cells per ml in phenol red-free DMEM. Cells were mixed with 300 nM to 1 nM antibodies and incubated for 1 h at 37° C. To determine efflux blockade cells were incubated in the presence of B1 fluorescent substrates as follows: 0.6 µM Rhodamine; 5 µM […] (DiOC2(3)) or 0.6 µM Calcein AM for 1.5 h at 37° C. The cells were then washed twice and finally resuspended in […] PBS. Rhodamine, DiOC2(3) or Calcein AM fluorescence were measured by flow cytometry.
Effect of anti-MDR1 antibodies on efflux of MDR1 substrates Calcein, DIOC2, and Rhodamine was assessed as described in efflux blockade experimental procedure.

N6/ADR cells = assay: Vincristine cytotoxicity assay on N6/ADR cells (CellTiter-Glo); assay type: cell-based, human; conditions: for IC50: Homo sapiens
Procedure: (§1) The effect of antibodies on vincristine cytotoxicity was evaluated on N6/ADR, a doxorubicin-selected, ABCB1-positive variant of the human acute lymphoblastic leukemia (ALL) cell line, NALM6. Cells were plated in 0.05 mL of Assay Media (RPMI-1640 +10% FBS) at 5000 cells/well in white flat bottom 96-well tissue culture plates. Vincristine was prepared at 2X final assay concentration by serial dilution from 200 uM in assay media containing test antibodies or control antibodies at 100 ug/mL (2X final concentration), or valspodar, a small molecule KPB1 inhibitor at 7 uM (2X final concentration). An equivalent volume (0.05 mL) of the vincristine/antibody mixture was added to the N6/ADR cells in 96-well plates. The plates were then incubated at 37° C., in 5% CO2. After 72 hr plates were equilibrated to room temperature and cell viability assessed using Promega® CellTiter-Glo® Luminescent Cell Viability Assay according to the manufacturer’s recommended protocol. Luminescence was measured on a Molecular Devices® FlexStation® 3 Multi-Mode Microplate Reader and data analyzed using GraphPad Prism 8.0 software.
as §1, with “Cytotoxicity Assays. The effect” for “The effect”, “a doxorubicin-selected, B1-positive variant of” for “a doxorubicin-selected, ABCB1-positive variant of”, “small molecule B1 inhibitor at” for “small molecule KPB1 inhibitor at”, “8.0 software. Half maximal inhibitory concentration (IC50) is the concentration of drug (vincristine or other chemotherapy cytotoxic agent) where the response (cell growth) is reduced by 50%.” for “8.0 software.”

[1] = test system: MES-SA DX5 uterine sarcoma; assay: MES-SA DX5 drug-resistant uterine sarcoma model in nude mice; assay type: in vivo; conditions: MES-SA DX5 tumors in vivo
Procedure: Anti-ABCB1 antibodies B1.129, B1.261, B1.223, B1.225, B1.188, B1.28, and B1.226 were tested for effect on growth of tumors in immunodeficient mice. The following cancer cell lines were used for generating tumor models.
MES-SA DX5: The multi drug-resistant cell line MES-SA/Dx5 (Sigma. 95051031) was derived from the human uterine sarcoma cell line MES-SA (Sigma Catalogue number. 95051030) which was originally obtained from a tumour from a person at the time of hysterectomy. […] Cross resistance to bleomycin, cisplatin, carmustine, 5-fluorouracil or methotrexate was not observed.
Nude mice were implanted with MES-SA DX5 cells to model uterine sarcoma. Anti-B1 monoclonal antibodies are efficacious in MES-SA DX5 uterine sarcoma model in nude mice.

[2] = test system: human MDR1 extracellular loops 1 and 4 (ECD1, ECD4); assay: Epitope mapping with mutant human MDR1 expressed on 293T cells (flow cytometry); assay type: binding; conditions: mutant versus WT human ABCB1; preliminary epitope mapping
Source text: To determine binding of anti-MDR1 mAbs listed in Table 2 to the two major extracellular loops 1 and 4 of MDR1, various mutations were constructed to alter or substitute these two loops. To examine binding to cynomolgus extracellular loops, the extracellular loop 1 and/or loop 4 of cynomolgus MDR1 were grafted (with a C-terminal FLAG tag) to substitute for the human loops in the human MDR1 using standard techniques. To examine binding dependence on the normal human loops, MDR1 variants with deletion 79-102 and deletion 82-99 in loop 1 were also generated. Loop 1 is also referred to as ECD1. Loop 4 is also referred to as ECD4. These mutant MDR1 efflux pump variants were expressed on 293T cells using standard methods to generate cells that could be used to distinguish binding of various anti-MDR1 mAbs. The different cells were incubated with different anti-MDR1 mAbs for about 1 hour at 4° C. The cells were washed twice with FACS buffer (PBS containing 0.5% BSA). Alexa647 labeled goat anti-human antibody was added as a secondary antibody, and the samples were incubated on ice for another 1 hour. Samples were washed again and analyzed by flow cytometry.
FIG. 9 summarizes the findings from preliminary epitope mapping using mutant human MDR1. […] For example, anti-MDR1 mAb B1.129 requires ECD1 and ECD4 for binding to human MDR1. All of the anti-MDR1 antibodies contact ECD4. […] ECD1 refers to the first extracellular domain of human ABCB1, ECD4 refers to the fourth extracellular domain of human ABCB1 and “others” refers to the remainder of the extracellular domains 2-3 and 5-6 of human ABCB1. Only binding to ECD1 and ECD4 was tested.

[3] = test system: DX5-B1 KO uterine sarcoma; assay: Uterine sarcoma formed from MES-SA DX5 cells lacking ABCB1 expression (DX5-B1 KO); assay type: in vivo

For “15D3: anti-ABCB1 antibody known as 15D3; VH SEQ ID NO:287, VL SEQ ID NO:284 [reference compound]”, the “inhibition of efflux of DIOC2” value (human MDR1; 293T.hB1 cell line) was “no observable effect”, the “inhibition of efflux of Rhodamine” value (human MDR1; 293T.hB1 cell line) was “low inhibition” and the “inhibition of efflux of DIOC2” value (human MDR1; MES-SA/Dx5 cells) was “no observable effect”. For the same molecule, the “inhibition of efflux of Rhodamine” value (human MDR1; MES-SA/Dx5 cells) was “no effect”, the “potentiation of vincristine mediated cytotoxicity” value (N6/ADR cells; N6/ADR cells) was “did not potentiate” and the “sensitization of MES-SA DX5 uterine sarcoma to paclitaxel” value [1] was “did not sensitize”. For the same molecule, the “ECD1 required for antibody binding to human ABCB1” value [2] was “do not require” and the “ECD4 required for antibody binding to human ABCB1” value [2] was “bind to an epitope that includes ECD4 sequences”.
Work on `CC[C@]1(O)C[C@H]2CN(CCc3c([nH]c4ccccc34)[C@@](C(=O)OC)(c3cc4c(cc3OC)N(C=O)[C@H]3[C@@](O)(C(=O)OC)[C@H](OC(C)=O)[C@]5(CC)C=CCN6CC[C@]43[C@@H]65)C2)C1` [Vincristine, vincristine] yielded an IC50 (N6/ADR cells; 72 h, read-out: IC50 (pM), cytotoxicity to N6/ADR cells by vincristine) of 4120 pM and an IC50 (N6/ADR cells; IC50 of vincristine alone or with antibody, N6/ADR cells, 72 hr, read-out: IC50 (nM), vincristine cytotoxicity) of 543 pM.
`CC(=O)O[C@H]1C(=O)[C@@]2(C)[C@H]([C@H](OC(=O)c3ccccc3)[C@]3(O)C[C@H](OC(=O)[C@H](O)[C@@H](NC(=O)c4ccccc4)c4ccccc4)C(C)=C1C3(C)C)[C@]1(OC(C)=O)CO[C@@H]1C[C@@H]2O` [paclitaxel] was tested, and the “sensitivity of tumor to paclitaxel” value [3] was “sensitive”.
With “KPA08: anti-ABCB1 antibody with two heavy chains from 15D3 and two light chains from MRK16 [reference compound]” the “ECD1 required for antibody binding to human ABCB1” value [2] was “do not require” and the “ECD4 required for antibody binding to human ABCB1” value [2] was “bind to an epitope that includes ECD4 sequences”.
In the case of “MRK16: anti-ABCB1 antibody known as MRK16; VH SEQ ID NO:286, VL SEQ ID NO:283”, the “potentiation of vincristine mediated cytotoxicity” value (N6/ADR cells; N6/ADR cells) is reported as “did not potentiate”.
